Measured values from patent US20200332251A1, “PERFUSION MEDIUM” (Boehringer Ingelheim International GmbH, priority 2017, published 2020).

Experiments:
Assay type in all cases: cell-based, Chinese Hamster
[1] = system: CHO perfusion cell culture; experiment: Deep-well plate perfusion cell culture model, acetylsalicylic acid (ASA) in perfusion media with 500 μM arachidonic acid
Procedure: (§1) The below examples, unless specified otherwise, were carried out using the following generalized protocol and apparatus for perfusion cell culture. Two different formats of perfusion culture process were employed for the experiments described in the examples. One is executed in a bioreactor model and the other is in a deep-well plate model.
(§2) The deep-well plate model is carried out using 24 deep-well plates with an 8 day run duration. A starting cell density of 20e^6 cells/ml is targeted for deep well plate model work. The working volume per well is 3 ml and cells are grown at 33° C. with 5% CO2, 80% humidity, and 200 rpm in an incubator with a 5.0 cm orbit diameter. Medium exchanges are performed daily by centrifuging the plate at 1800 rpm for 5 mins, removing supernatant, and re-suspending the cells in fresh media at 70% volume per day (VVD) exchange rate. Further details of the setup is described by Lin et al. (Biotechnol. Prog., 2017, Vol. 33, No. 4).
In this example, the deep-well plate model is used. ASA is an inhibitor of COX-1 and COX-2, which are the metabolic enzymes which convert arachidonic acid to synthesize prostaglandin E2 (See FIG. 2). This experiment therefore analyses the effect of acetylsalicylic acid (ASA) when added to perfusion medium.
The data provide evidence that prostaglandin E2 is effective in triggering cell growth suppression and in increasing cell specific productivity.

[2] = system: CHO perfusion cell culture; experiment: Deep-well plate perfusion cell culture model, arachidonic acid added to k-pop (high potassium) perfusion medium; conditions: 150 μM to 500 μM in medium with about 34 mM sodium and 94 mM potassium; beyond the effect of high potassium alone
Procedure: as §1
as §2, with “4). […]” for “4).”
The effect of concentrations of arachidonic acid added at 150 μM, 300 μM and 500 μM to a cell culture media having a sodium concentration of approximately 34 mM and a preexisting high potassium concentration of approximately 94 mM, i.e., a low sodium-to-potassium ratio of about 0.4, was determined with respect to (A) viable cell density (e^5 cells/nil), (B) percent (%) cell viability and (C) specific productivity (qp) was determined.

[3] = system: CHO perfusion cell culture; experiment: cells; conditions: for increase of the cell specific productivity: relative to cell culture without the additive; for cell growth (VCD) relative to normal perfusion media / specific productivity relative to normal perfusion media: each concentration (arachidonic acid 500 μM; PGE2 0.001, 10, 20, 60 μM), before day 6
Procedure: as §1, §2
In this example, the deep-well plate model is used.
Linoleic acid at various concentrations 500 μM, 900 μM, 1350 μM and 1800 μM was added to the cell culture media and the effects on (A) viable cell density (e^5 cells/nil), (B) percent (%) cell viability and (C) specific productivity (qp) were determined.
In this example, the deep-well plate model is used. This example analyzes the effect of arachidonic acid when added to perfusion medium.
The effect of arachidonic acid on (A) viable cell density (e^5 cells/nil), (B) percent (%) cell viability and (C) specific productivity (qp) of the cell culture was determined.
In this example, the deep-well plate model is used. This experiment analyzes the effect of prostaglandin E2 when added to perfusion medium.
At each concentration, the VCD and specific productivity (i.e., specific titer), the growth was suppressed cell growth and the specific productivity was increased before day 6 relative to the cell culture in normal perfusion media.

[4] = ASA in perfusion media with 500 μM arachidonic acid
[5] = 500 μM added in the normal perfusion media (Example 3, FIG. 4)
[6] = Cricetulus griseus, read-out: decrease of the VCD (viable cell density)
[7] = added to perfusion medium, 500-1800 μM (Example 2, FIG. 3)

CC(=O)Oc1ccccc1C(=O)O [ASA, acetylsalicylic acid]
specific productivity compared with normal perfusion medium [1, 4]: same effect
viable cell density compared with normal perfusion medium [1, 4]: higher

CCCCC/C=C\C/C=C\C/C=C\C/C=C\CCCC(=O)O [arachidonic acid]
suppressing cell growth and increasing productivity ([1]; 500 μM arachidonic acid when COX-1 and COX-2 are inhibited by ASA): no effect
cell growth [2]: decreases cell growth
cell specific productivity [2]: improves cell specific productivity
increase of cell specific productivity (qp) [3, 5]: ≥ 46%
suppression of cell growth [3, 5]: up to 31%
increase of the cell specific productivity ([3]; 500 μM in growth medium): up to 52%
cytotoxicity at 500 µM [3, 6]: 15 to 36%
cell growth (VCD) relative to normal perfusion media [3]: suppressed
specific productivity relative to normal perfusion media [3]: increased

CCCCC/C=C\C/C=C\CCCCCCCC(=O)O [linoleic acid]
increase of the cell specific productivity ([3]; 500 μM in growth medium): up to 10%
increase of the cell specific productivity ([3]; 900 μM in growth medium): up to 14%
increase of the cell specific productivity ([3]; 1350 μM in growth medium): up to 14%
increase of the cell specific productivity ([3]; 1800 μM in growth medium): up to 30%
viable cell density, viability and specific productivity relative to the normal perfusion media ([3]; 1800 μM, similar to arachidonic acid at 500 μM): most significant difference
cell specific productivity relative to normal perfusion media ([3]; 500, 900 and 1350 μM, day 7, about the same at the three concentrations): significantly increased
cytotoxicity at 500 µM [3, 6]: 6 to 10%
cytotoxicity at 900 µM [3, 6]: 11 to 14%
cytotoxicity at 1350 µM [3, 6]: 11 to 25%
cytotoxicity at 1800 µM [3, 6]: 23 to 39.8%
cell growth [3, 7]: suppresses cell growth
cell specific productivity (qp) [3, 7]: increases cell specific productivity

CCCCC[C@H](O)/C=C/[C@H]1[C@H](O)CC(=O)[C@@H]1C/C=C\CCCC(=O)O [prostaglandin E2]
increase of the cell specific productivity ([3]; 0.001 μM in growth medium): up to 13.5%
increase of the cell specific productivity ([3]; 10 μM in growth medium): up to 34.4%
increase of the cell specific productivity ([3]; 20 μM in growth medium): up to 31%
increase of the cell specific productivity ([3]; 60 μM in growth medium): up to 31%
cell growth (VCD) relative to normal perfusion media [3]: suppressed
specific productivity relative to normal perfusion media [3]: increased
